# Experimental data published in US10781197B2, “Sulfonamide analogues of galiellalactone” (GLACTONE PHARMA DEVELOPMENT AB, priority 2016, dated 2020).
# Read-outs that look alike come from different tables or passages of the source.
# What was measured:
# [1] = In vivo pharmacokinetics, plasma exposure after single oral dose; conditions: CD1 mice, single oral gavage 10 mg/kg
# Method: Pharmacokinetic (PK) studies were performed in CD1 mice to establish plasma exposure following administration of single oral doses of galiellalactone (GL) and example 1. Sample analysis was by LC-MS/MS. Dose solutions were prepared at a drug concentration of 0.5 mg/mL in 5% DMSO in 50 mM citrate buffer (citric acid/sodium citrate pH 4.0) and administered as a 20 mL/kg oral gavage (10 mg/kg).
# [2] = tested on: IL-6 stimulated LNCaP prostate cancer cells; experiment: Inhibition of IL-6 stimulated LNCaP cell proliferation, MTT assay; format: cell-based; conditions: Homo sapiens, IL-6 stimulated LNCaP cells, read-out: GIC50
# STAT3 signaling = experiment: STAT3 Luciferase reporter gene assay; format: cell-based; conditions: Homo sapiens; STAT3 reporter/HEK293 cell line, 1 h pretreatment, IL-6 induced for 16 h, luciferase activity; read-out: IC50
# Method: The ability to inhibit STAT3 signaling of the example compounds in comparison to galiellalactone was evaluated using a STAT3 Luciferase reporter gene assay.
# Compounds were tested for dose response activity to determine IC50 at eight different doses (0.03, 0.1, 0.3, 1, 3, 10, 30 and 100 μM) in triplicate on the STAT3 reporter system.
# Briefly, the STAT3 reporter/HEK293 cell line was plated in 96-well white plates for 16 h. Cells were pretreated with compounds for 1 h. Cells were then treated with IL-6 to induce STAT3 activation for 16 h. Luciferase activity was measured and analyzed.
# [3] = Chemical stability in phosphate buffer solution (PBS); format: physicochemical; conditions: 37° C., 1 μM test concentration
# Method: The chemical stability of example 20 and 28 in solution was determined in phosphate buffer solution (PBS) at 37° C. as outlined below.
# A 4 μl volume of 100 μM stock solution of the study compound in 50% DMSO was added to 396 μl of PBS, to obtain 1 μM test concentration. The study compounds were incubated in PBS at 37° C. with 600 rpm shaking. The incubations were quenched (30, 60, and 120 min) using a two-fold volume of cold acetonitrile and analyzed. The samples (0, 30, 60, and 120 min) were analyzed using a Waters Acquity UPLC with Thermo Q-Exactive Focus Orbitrap and a Waters HSS T3 (2.1×50 mm, 1.7 μm particle size) column.
# IL-6/STAT3 signaling = conditions: cited from earlier work
AUC(0-inf) ([1]; mouse),AUC(0-t) ([1]; mouse),"half-life ([1]; mouse, read-out: Apparent half-life (converted))","Cmax ([1]; mouse, read-out: Cmax)","Tmax ([1]; mouse, read-out: Tmax)",IC50 [2],IC50 (STAT3 signaling),half-life at 1 μM [3],Cmax [1],Tmax [1],Structure (SMILES),inhibition of IL-6/STAT3 signaling (IL-6/STAT3 signaling)
157 ng·h/mL,141 ng·h/mL,2 h,129 ng/mL,0.25 h,1 µM,1.1 µM,–,–,–,"Cc1ccc(S(=O)(=O)N[C@@]2(C)C=C3C(=O)O[C@@H]4CC[C@H](C2)[C@]34O)cc1 [Example 1, N-[(4R,7R,9R,11S)-11-Hydroxy-9-methyl-2-oxo-3-oxatricyclo[5.3.1.0^4,11]undec-1(10)-en-9-yl]-4-methylbenzene-1-sulfonamide]",–
–,–,–,–,–,–,1.25 µM,5.82 h,–,–,"C[C@]1(NS(=O)(=O)c2ccc(C(F)(F)F)cn2)C=C2C(=O)O[C@@H]3CCC(C1)[C@]23O (stereo partly drawn) [Example 20, N-[(4R,7R,9R,11S)-11-hydroxy-9-methyl-2-oxo-3-oxatricyclo[5.3.1.0^4,^11]undec-1(10)-en-9-yl]-5-(trifluoromethyl)pyridine-2-sulfonamide]",–
–,–,–,–,–,–,0.92 µM,> 13.2 h,–,–,"C[C@]1(NS(=O)(=O)c2ccc(C(F)(F)F)cn2)C=C2C(=O)O[C@]3(C)CC[C@H](C1)[C@]23O [Example 28, N-[(4R,7R,9R,11S)-11-hydroxy-4,9-dimethyl-2-oxo-3-oxatricyclo[5.3.1.0^4,11]undec-1 (10)-en-9-yl]-5-(trifluoromethyl)pyridine-2-sulfonamide]",–
–,–,–,–,–,2.8 µM,7.5 µM,–,52 ng/mL,0.5 h,"C[C@@H]1C=C2C(=O)O[C@@H]3CC[C@H](C1)[C@]23O [Galiellalactone, (−)-Galiellalactone]",submicromolar
